In US20150225369A1, “DDR2 INHIBITORS FOR THE TREATMENT OF OSTEOARTHRITIS” (Merck Patent GmbH, priority 2012, published 2015):

Assays:
[1] = biological target: T1, His-tagged human recombinant DDR-2 kinase domain (His-TEV-DDR2 467-855 aa) (Homo sapiens, UniProt Q16832); test: Autophosphorylation assay for biochemical activity testing of DDR2 (HTRF); settings: biochemical DDR2 autophosphorylation
T1 construct: His-TEV-DDR2 467-855 aa
T1 sequence (Q16832 467-855): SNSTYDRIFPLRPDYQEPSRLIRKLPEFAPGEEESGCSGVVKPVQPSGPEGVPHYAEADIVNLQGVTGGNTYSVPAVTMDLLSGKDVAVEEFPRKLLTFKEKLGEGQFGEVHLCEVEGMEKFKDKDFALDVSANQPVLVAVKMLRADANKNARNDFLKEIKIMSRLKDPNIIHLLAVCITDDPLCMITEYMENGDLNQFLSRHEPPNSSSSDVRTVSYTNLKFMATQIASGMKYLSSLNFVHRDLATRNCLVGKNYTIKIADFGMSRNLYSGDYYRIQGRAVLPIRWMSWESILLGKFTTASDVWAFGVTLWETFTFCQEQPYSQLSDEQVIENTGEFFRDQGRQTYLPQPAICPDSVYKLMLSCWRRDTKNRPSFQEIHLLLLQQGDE
Summary of the method: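 Phospho-tyrosine was detected by HTRF between XL665 anti-6His and cryptate anti-phosphotyrosine PT66 antibodies, using the emission ratio. Inhibition was referenced to the inhibitor-free reaction.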

[2] = biological target: T2, HEK293 transfected with human DDR2 (Homo sapiens, UniProt Q16832); test: Phospho-DDR2 cellular assay (collagen II induced DDR2 phosphorylation, ELISA); format: cell-based; settings: cellular phospho-DDR2; read-out: IC50 [p-DDR2]
T2 construct: expressed in transfected cells; host or cells: HEK293 (PLT460F_(DDR2)-P7-1)
T2 sequence (Q16832 22-855): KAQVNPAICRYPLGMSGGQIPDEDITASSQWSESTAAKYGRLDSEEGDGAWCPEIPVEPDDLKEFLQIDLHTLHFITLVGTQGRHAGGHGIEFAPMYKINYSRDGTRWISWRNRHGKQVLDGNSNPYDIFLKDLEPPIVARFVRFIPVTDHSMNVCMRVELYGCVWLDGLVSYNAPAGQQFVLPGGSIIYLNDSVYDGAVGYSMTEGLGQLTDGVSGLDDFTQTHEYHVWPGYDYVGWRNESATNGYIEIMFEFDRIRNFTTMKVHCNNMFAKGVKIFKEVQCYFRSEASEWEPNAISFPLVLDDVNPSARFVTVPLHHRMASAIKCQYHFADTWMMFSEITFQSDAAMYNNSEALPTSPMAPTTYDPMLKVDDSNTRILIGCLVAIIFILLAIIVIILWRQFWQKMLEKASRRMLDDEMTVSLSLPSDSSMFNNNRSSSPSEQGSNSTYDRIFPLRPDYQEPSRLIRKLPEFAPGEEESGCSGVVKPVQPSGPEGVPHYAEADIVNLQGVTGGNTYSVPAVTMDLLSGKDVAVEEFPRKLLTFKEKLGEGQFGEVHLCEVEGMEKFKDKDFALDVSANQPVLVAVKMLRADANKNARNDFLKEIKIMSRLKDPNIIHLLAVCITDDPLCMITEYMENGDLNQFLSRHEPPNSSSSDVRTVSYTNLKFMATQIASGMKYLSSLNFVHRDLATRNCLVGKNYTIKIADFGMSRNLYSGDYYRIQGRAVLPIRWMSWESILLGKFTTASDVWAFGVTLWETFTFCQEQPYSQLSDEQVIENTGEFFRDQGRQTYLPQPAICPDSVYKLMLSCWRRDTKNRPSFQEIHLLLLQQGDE
Summary of the method: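 Cells seeded 48 h in 10% FBS, serum-starved 8 h, then given compound (5% DMSO) with 50 μg/ml chicken collagen II for 16 h at 37 °C. Lysates captured on anti-DDR2 antibody plates; phospho-DDR2 detected with HRP anti-phosphotyrosine antibody by chemiluminescence.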

| SMILES | IC50 [1] | IC50 [2] |
| --- | --- | --- |
| CNCCOc1cc(Cl)c(C)cc1NC(=O)NCc1ccc(Oc2ccnc(C(=O)NC)c2)c(C)c1 [compound 141, 4-(4-{3-[4-Chloro-5-methyl-2-(2-methylamino-ethoxy)-phenyl]-ureidomethyl}-2-methyl-phenoxy)-pyridine-2-carboxylic acid methylamide] | 43 nM | 25 nM |
| CNC(=O)c1cc(Oc2ccc(CNC(=O)Nc3cc(C)c(Cl)cc3OC3CCNCC3)cc2C)ccn1 [compound 142, 4-(4-{3-[4-Chloro-5-methyl-2-(piperidin-4-yloxy)-phenyl]-ureidomethyl}-2-methyl-phenoxy)-pyridine-2-carboxylic acid methylamide] | 36 nM | 33 nM |
| CNC(=O)c1cc(Oc2ccc(CNC(=O)Nc3cc(C)c(Cl)cc3OCCN3CCNCC3)cc2C)ccn1 [compound 143, 4-(4-{3-[4-Chloro-5-methyl-2-(2-piperazin-1-yl-ethoxy)-phenyl]-ureidomethyl}-2-methyl-phenoxy)-pyridine-2-carboxylic acid methylamide] | 77 nM | 66 nM |
| CNC(=O)c1cc(Oc2ccc(CNC(=O)Nc3cc(C)c(Cl)cc3OCCN)cc2)ccn1 [compound 145, 4-(4-{3-[2-(2-Amino-ethoxy)-4-chloro-5-methyl-phenyl]-ureidomethyl}-phenoxy)-pyridine-2-carboxylic acid methylamide] | 91 nM | 65 nM |
| CNCCOc1ccc(C(F)(F)F)cc1NC(=O)NCc1ccc(Oc2ccnc(C(=O)NC)c2)c(C)c1 [compound 146, 4-(2-Methyl-4-{3-[2-(2-methylamino-ethoxy)-5-trifluoromethyl-phenyl]-ureidomethyl}-phenoxy)-pyridine-2-carboxylic acid methylamide] | 33 nM | 15 nM |
| CNC(=O)c1cc(Oc2ccc(CNC(=O)Nc3cc(C(F)(F)F)ccc3OCCN(C)C)cc2C)ccn1 [compound 150, 4-(4-{3-[2-(2-Dimethylamino-ethoxy)-5-trifluoromethyl-phenyl]-ureidomethyl}-2-methyl-phenoxy)-pyridine-2-carboxylic acid methylamide] | 42 nM | 10 nM |
| CNC(=O)c1cc(Oc2ccc(CNC(=O)Nc3cc(C)c(Cl)cc3OCCCN(C)C)cc2)ccn1 [compound 153, 4-(4-{3-[4-Chloro-2-(3-dimethylamino-propoxy)-5-methyl-phenyl]-ureidomethyl}-phenoxy)-pyridine-2-carboxylic acid methylamide] | 140 nM | 55 nM |
| CNC(=O)c1cc(Oc2ccc(CNC(=O)Nc3cc(C(F)(F)F)ccc3OCCN)cc2C)ccn1 [compound 155, 4-(4-{3-[2-(2-Amino-ethoxy)-5-trifluoromethyl-phenyl]-ureidomethyl}-2-methyl-phenoxy)-pyridine-2-carboxylic acid methylamide] | 40 nM | 18 nM |
| CNC(=O)c1cc(Oc2ccc(CNC(=O)Nc3cc(C)c(Cl)cc3OCCCN(C)C)cc2C)ccn1 [compound 163, 4-(4-{3-[4-Chloro-2-(3-dimethylamino-propoxy)-5-methyl-phenyl]-ureidomethyl}-2-methyl-phenoxy)-pyridine-2-carboxylic acid methylamide] | 40 nM | 16 nM |
| CNC(=O)c1cc(Oc2ccc(CNC(=O)Nc3cc(C(F)(F)F)ccc3OCCNC(C)C)cc2)ccn1 [compound 172, 4-(4-{3-[2-(2-Isopropylamino-ethoxy)-5-trifluoromethyl-phenyl]-ureidomethyl}-phenoxy)-pyridine-2-carboxylic acid methylamide] | 140 nM | 31 nM |

The remaining lines, values ahead:

| IC50 [1] | IC50 [2] | SMILES |
| --- | --- | --- |
| 187 nM | 52 nM | CNCCOc1cc(Cl)c(C)cc1NC(=O)NCc1ccc(Oc2ccnc(C(=O)NC)c2)cc1 [compound 125, 4-(4-{3-[4-Chloro-5-methyl-2-(2-methylamino-ethoxy)-phenyl]-ureidomethyl}-phenoxy)-pyridine-2-carboxylic acid methylamide] |
| 47 nM | 34 nM | CNCCOc1cc(Cl)c(C(F)(F)F)cc1NC(=O)NCc1ccc(Oc2ccnc(C(=O)NC)c2)cc1 [compound 127, 4-(4-{3-[4-Chloro-2-(2-methylamino-ethoxy)-5-trifluoromethyl-phenyl]-ureidomethyl}-phenoxy)-pyridine-2-carboxylic acid methylamide] |
| 91 nM | 63 nM | CNC(=O)c1cc(Oc2ccc(CNC(=O)Nc3cc(C(F)(F)F)c(Cl)cc3OCCN3CCNCC3)cc2)ccn1 [compound 128, 4-(4-{3-[4-Chloro-2-(2-piperazin-1-yl-ethoxy)-5-trifluoromethyl-phenyl]-ureidomethyl}-phenoxy)-pyridine-2-carboxylic acid methylamide] |
| 34 nM | 24 nM | CNC(=O)c1cc(Oc2ccc(CNC(=O)Nc3cc(C(F)(F)F)c(Cl)cc3OC3CCNCC3)cc2)ccn1 [compound 130, 4-(4-{3-[4-Chloro-2-(piperidin-4-yloxy)-5-trifluoromethyl-phenyl]-ureidomethyl}-phenoxy)-pyridine-2-carboxylic acid methylamide] |
| 26 nM | 18 nM | CNC(=O)c1cc(Oc2ccc(CNC(=O)Nc3cc(C)c(Cl)cc3OCCN(C)C)cc2C)ccn1 [compound 139, 4-(4-{3-[4-Chloro-2-(2-dimethylamino-ethoxy)-5-methyl-phenyl]-ureidomethyl}-2-methyl-phenoxy)-pyridine-2-carboxylic acid methylamide] |
| 49 nM | 53 nM | CNC(=O)c1cc(Oc2ccc(CNC(=O)Nc3cc(C)c(Cl)cc3OCCN)cc2C)ccn1 [compound 144, 4-(4-{3-[2-(2-Amino-ethoxy)-4-chloro-5-methyl-phenyl]-ureidomethyl}-2-methyl-phenoxy)-pyridine-2-carboxylic acid methylamide] |
| 43 nM | 16 nM | CNC(=O)c1cc(Oc2ccc(CNC(=O)Nc3cc(C(F)(F)F)ccc3OCC3CCCN3)cc2)ccn1 (centres unmarked) [compound 156, 4-(4-{3-[2-(Pyrrolidin-2-ylmethoxy)-5-trifluoromethyl-phenyl]-ureidomethyl}-phenoxy)-pyridine-2-carboxylic acid methylamide] |
| 360 nM | 95 nM | CNC(=O)c1cc(Oc2ccc(CNC(=O)Nc3cc(C(F)(F)F)ccc3OCC(C)(C)N)cc2)ccn1 [compound 160, 4-(4-{3-[2-(2-Amino-2-methyl-propoxy)-5-trifluoromethyl-phenyl]-ureidomethyl}-phenoxy)-pyridine-2-carboxylic acid methylamide] |
| 2800 nM | 1900 nM | CNCCOc1ccccc1NC(=O)NCc1ccc(Oc2ccnc(C(=O)NC)c2)cc1 [compound 169, 4-(4-{3-[2-(2-Methylamino-ethoxy)-phenyl]-ureidomethyl}-phenoxy)-pyridine-2-carboxylic acid methylamide] |
| 310 nM | 195 nM | CNCCOc1ccc(C)cc1NC(=O)NCc1ccc(Oc2ccnc(C(=O)NC)c2)cc1 [compound 170, 4-(4-{3-[5-Methyl-2-(2-methylamino-ethoxy)-phenyl]-ureidomethyl}-phenoxy)-pyridine-2-carboxylic acid methylamide] |
| 140 nM | 28 nM | CNC(=O)c1cc(Oc2ccc(CNC(=O)Nc3cc(Cl)c(C)cc3OCCN(C)C)cc2)ccn1 [compound 174, 4-(4-{3-[5-Chloro-2-(2-dimethylamino-ethoxy)-4-methyl-phenyl]-ureidomethyl}-phenoxy)-pyridine-2-carboxylic acid methylamide] |
| 74 nM | 27 nM | CNCCOc1cc(C)c(Cl)cc1NC(=O)NCc1ccc(Oc2ccnc(C(=O)NC)c2)cc1 [compound 177, 4-(4-{3-[5-Chloro-4-methyl-2-(2-methylamino-ethoxy)-phenyl]-ureidomethyl}-phenoxy)-pyridine-2-carboxylic acid methylamide] |
